Measured values taken from patent US12006328B2, “Thieno[2,3-d]pyrimidin-4-one derivatives as NMDAR modulators and uses related thereto” (Emory University, priority 2014, dated 2024).

What was measured:
Assay type in all cases: cell-based
[1] = biological target: GluN2C-containing NMDA receptors (Homo sapiens, UniProt Q14957); test: Two-electrode voltage-clamp recordings from Xenopus laevis oocytes, GluN2C; settings: for I10 μM/ICONTROL (mean ± SEM, %) Glu N2C: 10 μM test compound with glutamate 100 μM and glycine 30 μM, Tables 1-5; for I10 μM/ICONTROL (mean ± SEM, %) Glu N2C / maximal potentiation Glu N2C: percent of response without compound; for EC50: read-out: EC50 Glu N2C
Experimental: (§1) Xenopus laevis oocytes were injected with cRNA encoding the NMDA receptor subunits. Two to seven days after injection, two-electrode voltage-clamp recordings were performed. Extracellular solutions were made from a solutions containing (in mM) 90 NaCl, 3 KCl, 10 HEPES, 0.5 BaCl2, 0.01 EDTA (pH 7.4 with NaOH). Voltage and current electrodes were filled with 0.3 M and 3.0 M KCl, respectively.
(§2) Potency was determined by adding increasing concentrations of test compound to saturating concentrations of glutamate (100 μM) and glycine (30 μM), and the response amplitude measured. The response in the presence of each concentration of test compound plus agonists was expressed as a percent of the response in the absence of test compound.

[2] = biological target: GluN2D-containing NMDA receptors (Homo sapiens, UniProt O15399); test: Two-electrode voltage-clamp recordings from Xenopus laevis oocytes, GluN2D; settings: for I10 μM/ICONTROL (mean ± SEM, %) Glu N2D: 10 μM test compound with glutamate 100 μM and glycine 30 μM, Tables 1-5; for I10 μM/ICONTROL (mean ± SEM, %) Glu N2D / maximal potentiation Glu N2D: percent of response without compound; for EC50: read-out: EC50 Glu N2D
Experimental: as §1, §2

[3] = biological target: GluN2B-containing NMDA receptors (Homo sapiens, UniProt Q13224); test: Two-electrode voltage-clamp recordings from Xenopus laevis oocytes, GluN2B; settings: for I10 μM/ICONTROL (mean ± SEM, %) Glu N2B: 10 μM test compound with glutamate 100 μM and glycine 30 μM, Tables 1-5; for I10 μM/ICONTROL (mean ± SEM, %) Glu N2B / maximal potentiation Glu N2B: percent of response without compound; for EC50: read-out: EC50 Glu N2B
Experimental: as §1, §2

[4] = Table 1, glutamate 100 μM, glycine 30 μM, Hill fit
[5] = Table 1, in brackets after EC50
[6] = Table 2, in brackets below IC50

Sequence of GluN2D-containing NMDA receptors (O15399 28-1336, other chains not shown): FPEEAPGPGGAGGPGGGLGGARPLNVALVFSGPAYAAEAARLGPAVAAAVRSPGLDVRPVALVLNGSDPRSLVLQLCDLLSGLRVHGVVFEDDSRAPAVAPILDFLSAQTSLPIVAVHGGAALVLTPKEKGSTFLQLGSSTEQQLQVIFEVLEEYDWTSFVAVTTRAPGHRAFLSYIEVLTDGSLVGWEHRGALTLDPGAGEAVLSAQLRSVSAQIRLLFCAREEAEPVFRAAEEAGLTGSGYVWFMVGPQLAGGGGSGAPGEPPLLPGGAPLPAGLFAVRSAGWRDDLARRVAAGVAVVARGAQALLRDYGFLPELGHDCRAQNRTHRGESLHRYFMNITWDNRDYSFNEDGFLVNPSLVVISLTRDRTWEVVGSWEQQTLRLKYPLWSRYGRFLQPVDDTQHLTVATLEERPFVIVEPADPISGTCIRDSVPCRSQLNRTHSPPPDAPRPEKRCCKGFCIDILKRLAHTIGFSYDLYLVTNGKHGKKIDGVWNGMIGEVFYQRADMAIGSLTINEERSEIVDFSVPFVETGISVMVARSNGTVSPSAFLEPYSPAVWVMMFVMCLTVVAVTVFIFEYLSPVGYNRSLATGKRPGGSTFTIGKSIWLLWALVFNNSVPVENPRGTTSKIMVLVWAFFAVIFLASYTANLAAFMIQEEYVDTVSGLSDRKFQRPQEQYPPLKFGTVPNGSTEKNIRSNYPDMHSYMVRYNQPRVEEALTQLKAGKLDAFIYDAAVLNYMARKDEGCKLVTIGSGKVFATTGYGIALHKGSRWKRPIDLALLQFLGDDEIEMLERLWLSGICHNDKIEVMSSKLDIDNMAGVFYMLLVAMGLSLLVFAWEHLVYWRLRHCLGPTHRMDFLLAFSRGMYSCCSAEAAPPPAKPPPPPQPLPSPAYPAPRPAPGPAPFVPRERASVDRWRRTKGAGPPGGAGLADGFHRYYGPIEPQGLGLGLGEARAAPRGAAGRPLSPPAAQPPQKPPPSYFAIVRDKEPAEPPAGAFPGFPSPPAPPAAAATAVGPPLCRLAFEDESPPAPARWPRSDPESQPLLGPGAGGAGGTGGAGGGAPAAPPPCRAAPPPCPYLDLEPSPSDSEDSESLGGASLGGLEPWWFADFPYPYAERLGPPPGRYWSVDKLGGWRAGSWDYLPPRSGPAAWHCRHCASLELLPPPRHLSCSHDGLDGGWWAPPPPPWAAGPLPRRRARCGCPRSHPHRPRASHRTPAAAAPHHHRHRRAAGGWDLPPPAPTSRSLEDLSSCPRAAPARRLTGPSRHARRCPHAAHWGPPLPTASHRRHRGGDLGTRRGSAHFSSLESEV
Sequence of GluN2C-containing NMDA receptors (Q14957 20-1233, other chains not shown): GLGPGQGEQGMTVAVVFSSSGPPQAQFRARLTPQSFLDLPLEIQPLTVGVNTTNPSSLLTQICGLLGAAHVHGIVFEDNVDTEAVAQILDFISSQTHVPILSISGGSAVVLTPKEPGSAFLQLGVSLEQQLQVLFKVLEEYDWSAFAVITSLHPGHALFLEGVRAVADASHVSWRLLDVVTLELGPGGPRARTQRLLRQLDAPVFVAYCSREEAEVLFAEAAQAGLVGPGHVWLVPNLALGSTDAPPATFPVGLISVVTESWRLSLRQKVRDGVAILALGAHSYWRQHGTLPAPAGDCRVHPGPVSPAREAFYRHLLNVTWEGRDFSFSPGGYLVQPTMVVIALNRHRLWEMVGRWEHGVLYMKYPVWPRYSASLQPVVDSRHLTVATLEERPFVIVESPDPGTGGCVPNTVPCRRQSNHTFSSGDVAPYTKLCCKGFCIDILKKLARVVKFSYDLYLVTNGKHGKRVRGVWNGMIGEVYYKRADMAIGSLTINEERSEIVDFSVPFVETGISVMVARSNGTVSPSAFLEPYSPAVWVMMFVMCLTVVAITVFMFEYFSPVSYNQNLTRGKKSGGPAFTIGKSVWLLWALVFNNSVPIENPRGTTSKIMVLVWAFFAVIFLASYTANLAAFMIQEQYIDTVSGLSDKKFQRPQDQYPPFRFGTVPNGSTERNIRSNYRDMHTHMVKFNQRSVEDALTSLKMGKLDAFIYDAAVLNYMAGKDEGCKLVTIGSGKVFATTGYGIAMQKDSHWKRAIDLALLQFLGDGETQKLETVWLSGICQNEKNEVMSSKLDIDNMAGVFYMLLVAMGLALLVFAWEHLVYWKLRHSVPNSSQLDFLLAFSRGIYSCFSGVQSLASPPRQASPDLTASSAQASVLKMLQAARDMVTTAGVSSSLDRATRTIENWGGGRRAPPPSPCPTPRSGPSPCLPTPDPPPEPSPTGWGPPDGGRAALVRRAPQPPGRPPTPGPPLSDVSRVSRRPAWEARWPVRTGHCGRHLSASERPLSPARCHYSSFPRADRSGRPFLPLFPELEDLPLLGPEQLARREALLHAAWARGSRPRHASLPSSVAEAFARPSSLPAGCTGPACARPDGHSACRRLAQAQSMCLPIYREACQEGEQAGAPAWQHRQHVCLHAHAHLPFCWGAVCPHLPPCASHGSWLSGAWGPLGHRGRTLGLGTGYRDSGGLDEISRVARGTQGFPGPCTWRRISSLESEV
Sequence of GluN2B-containing NMDA receptors (Q13224 27-1484, other chains not shown): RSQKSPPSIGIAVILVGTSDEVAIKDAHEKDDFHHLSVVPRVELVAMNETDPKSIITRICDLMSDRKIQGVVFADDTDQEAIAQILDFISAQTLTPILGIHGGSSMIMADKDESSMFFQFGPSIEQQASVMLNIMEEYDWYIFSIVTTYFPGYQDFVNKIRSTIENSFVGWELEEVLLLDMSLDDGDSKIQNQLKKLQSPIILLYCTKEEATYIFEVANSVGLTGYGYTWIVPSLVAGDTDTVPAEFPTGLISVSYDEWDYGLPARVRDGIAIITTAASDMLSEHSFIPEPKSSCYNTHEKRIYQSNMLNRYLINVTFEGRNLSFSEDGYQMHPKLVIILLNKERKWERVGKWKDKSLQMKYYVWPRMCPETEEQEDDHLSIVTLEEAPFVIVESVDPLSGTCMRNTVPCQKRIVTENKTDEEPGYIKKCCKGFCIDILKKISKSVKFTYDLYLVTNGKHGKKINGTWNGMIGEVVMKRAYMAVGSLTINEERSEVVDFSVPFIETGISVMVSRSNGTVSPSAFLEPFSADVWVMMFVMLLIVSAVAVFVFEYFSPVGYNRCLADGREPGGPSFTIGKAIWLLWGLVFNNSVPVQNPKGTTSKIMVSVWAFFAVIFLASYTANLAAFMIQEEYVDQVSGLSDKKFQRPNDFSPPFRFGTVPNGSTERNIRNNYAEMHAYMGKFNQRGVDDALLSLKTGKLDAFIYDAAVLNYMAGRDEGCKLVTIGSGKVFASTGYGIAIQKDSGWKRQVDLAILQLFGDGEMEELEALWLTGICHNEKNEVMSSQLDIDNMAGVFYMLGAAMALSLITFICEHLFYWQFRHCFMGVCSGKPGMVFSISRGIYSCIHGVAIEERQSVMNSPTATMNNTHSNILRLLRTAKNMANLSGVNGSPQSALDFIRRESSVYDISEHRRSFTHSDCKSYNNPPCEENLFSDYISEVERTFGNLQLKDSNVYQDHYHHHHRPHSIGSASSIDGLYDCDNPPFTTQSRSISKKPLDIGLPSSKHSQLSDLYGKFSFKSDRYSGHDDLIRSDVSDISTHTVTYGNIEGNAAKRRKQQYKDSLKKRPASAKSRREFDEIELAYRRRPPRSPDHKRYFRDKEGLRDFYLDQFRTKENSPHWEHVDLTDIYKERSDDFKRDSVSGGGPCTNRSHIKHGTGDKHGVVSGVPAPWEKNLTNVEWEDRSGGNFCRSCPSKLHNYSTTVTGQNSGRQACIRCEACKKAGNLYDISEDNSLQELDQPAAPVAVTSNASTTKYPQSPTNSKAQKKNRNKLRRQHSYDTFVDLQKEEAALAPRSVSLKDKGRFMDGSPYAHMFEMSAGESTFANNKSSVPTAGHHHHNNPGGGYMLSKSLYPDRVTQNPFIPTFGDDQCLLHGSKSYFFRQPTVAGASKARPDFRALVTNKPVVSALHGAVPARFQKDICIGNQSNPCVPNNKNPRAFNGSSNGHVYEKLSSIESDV

`COC(=O)[C@@H]1CCCN1C(=O)Cn1cnc2sc(C)c(-c3ccc(Br)cc3)c2c1=O` was tested, and the “I10 μM/ICONTROL (mean ± SEM, %) Glu N2C” value [1] was 159 ± 9.5%, the “I10 μM/ICONTROL (mean ± SEM, %) Glu N2D” value [2] was 147 ± 12.7% and the “I10 μM/ICONTROL (mean ± SEM, %) Glu N2B” value [3] was 109 ± 4.9%.

With `Cc1sc2ncn(CC(=O)O)c(=O)c2c1-c1cccc(Cl)c1` [1 / 3-Cl—Ph / Me / OH] the “I10 μM/ICONTROL (mean ± SEM, %) Glu N2C” value [1] was 93 ± 1.4%, the “I10 μM/ICONTROL (mean ± SEM, %) Glu N2D” value [2] was 89 ± 1.4% and the “I10 μM/ICONTROL (mean ± SEM, %) Glu N2B” value [3] was 93 ± 1.2%.

In the case of `Cc1sc2ncn(CC(=O)N3CCC[C@H]3C(=O)O)c(=O)c2c1-c1ccc(Cl)cc1` [1 / 4-Cl—Ph / Me / —Nproline (S)], the “I10 μM/ICONTROL (mean ± SEM, %) Glu N2C” value [1] is reported as 104 ± 2.3%, the “I10 μM/ICONTROL (mean ± SEM, %) Glu N2D” value [2] is reported as 97 ± 1.9% and the “I10 μM/ICONTROL (mean ± SEM, %) Glu N2B” value [3] is reported as 89 ± 1.7%.

In the case of `Cc1sc2ncn(CCC(=O)O)c(=O)c2c1-c1cccc(Cl)c1` [2 / 3-Cl—Ph / Me / OH], the “I10 μM/ICONTROL (mean ± SEM, %) Glu N2C” value [1] is reported as 89 ± 6.2%, the “I10 μM/ICONTROL (mean ± SEM, %) Glu N2D” value [2] is reported as 97 ± 1.1% and the “I10 μM/ICONTROL (mean ± SEM, %) Glu N2B” value [3] is reported as 99 ± 0.6%.

With `Cc1sc2ncn(CC(=O)N3CCCC3)c(=O)c2c1-c1cccc(-n2ccnc2)c1` [3-N-imidazolyl-Ph / Me] the “I10 μM/ICONTROL (mean ± SEM, %) Glu N2C” value [1] was 112 ± 1.3%, the EC50 [1, 4] was 191 µM and the “maximal potentiation Glu N2C” value [1, 5] was 453%. The “I10 μM/ICONTROL (mean ± SEM, %) Glu N2D” value [2] was 99 ± 3.4%, the EC50 [2, 4] was 80 µM and the “maximal potentiation Glu N2D” value [2, 5] was 207%. The “I10 μM/ICONTROL (mean ± SEM, %) Glu N2B” value [3] was 120 ± 5.8%, the EC50 [3, 4] was 102 µM and the “maximal potentiation Glu N2B” value [3, 5] was 261%.

For `Cc1sc2ncn(CC(=O)c3cccs3)c(=O)c2c1-c1cccc(Cl)c1` [1 / 3-Cl—Ph / Me / 2-thiophene], the “I10 μM/ICONTROL (mean ± SEM, %) Glu N2C” value [1] was 125 ± 2.8%, the IC50 ([1]; Table 2, glutamate 100 μM, glycine 30 μM, Hill fit, read-out: IC50 Glu N2C) was 19 µM and the “maximal potentiation Glu N2C” value [1, 6] was “(293) %”. The “I10 μM/ICONTROL (mean ± SEM, %) Glu N2D” value [2] was 137 ± 6.3%, the IC50 ([2]; Table 2, glutamate 100 μM, glycine 30 μM, Hill fit, read-out: IC50 Glu N2D) was 15 µM and the “maximal potentiation Glu N2D” value [2, 6] was “(224) %”. The “I10 μM/ICONTROL (mean ± SEM, %) Glu N2B” value [3] was 133 ± 3.9%, the IC50 ([3]; Table 2, glutamate 100 μM, glycine 30 μM, Hill fit, read-out: IC50 Glu N2B) was 14 µM and the “maximal potentiation Glu N2B” value [3, 6] was “(207) %”.

In the case of `O=C(Cn1cnc2scc(-c3ccc(I)cc3)c2c1=O)N1CCCC1` [4-I—Ph / H], the “I10 μM/ICONTROL (mean ± SEM, %) Glu N2C” value [1] is reported as 110 ± 2.1%, the EC50 [1, 4] is reported as 89 µM and the “maximal potentiation Glu N2C” value [1, 5] is reported as 369%. For the same compound, the “I10 μM/ICONTROL (mean ± SEM, %) Glu N2D” value [2] was 101 ± 1.8%, the EC50 [2, 4] was 45 µM and the “maximal potentiation Glu N2D” value [2, 5] was 206%. For the same compound, the “I10 μM/ICONTROL (mean ± SEM, %) Glu N2B” value [3] was 121 ± 5.7%, the EC50 [3, 4] was 75 µM and the “maximal potentiation Glu N2B” value [3, 5] was 262%.

In the case of `Cc1sc2ncn(CC(=O)N3CCCC3)c(=O)c2c1-c1cccc([N+](=O)[O-])c1` [3-NO2—Ph / Me], the “I10 μM/ICONTROL (mean ± SEM, %) Glu N2C” value [1] is reported as 321 ± 13.6%, the EC50 [1, 4] is reported as 36 µM and the “maximal potentiation Glu N2C” value [1, 5] is reported as 1483%. The “I10 μM/ICONTROL (mean ± SEM, %) Glu N2D” value [2] was 253 ± 13.3%, the EC50 [2, 4] was 60 µM and the “maximal potentiation Glu N2D” value [2, 5] was 1860%. The “I10 μM/ICONTROL (mean ± SEM, %) Glu N2B” value [3] was 185 ± 4.8%, the EC50 [3, 4] was 12 µM and the “maximal potentiation Glu N2B” value [3, 5] was 304%.

`Cc1sc2ncn(CC(=O)SC(C)(C)C)c(=O)c2c1-c1cccc(Cl)c1` [1 / 3-Cl—Ph / Me / StBu] was tested, and the “I10 μM/ICONTROL (mean ± SEM, %) Glu N2C” value [1] was 87 ± 4.0%, the “I10 μM/ICONTROL (mean ± SEM, %) Glu N2D” value [2] was 73 ± 2.6% and the “I10 μM/ICONTROL (mean ± SEM, %) Glu N2B” value [3] was 92 ± 4.6%.

For `CCSC(=O)Cn1cnc2sc(C)c(-c3cccc(Cl)c3)c2c1=O` [1 / 3-Cl—Ph / Me / SEt], the “I10 μM/ICONTROL (mean ± SEM, %) Glu N2C” value [1] was 95 ± 2.8%, the “I10 μM/ICONTROL (mean ± SEM, %) Glu N2D” value [2] was 90 ± 1.3% and the “I10 μM/ICONTROL (mean ± SEM, %) Glu N2B” value [3] was 95 ± 0.9%.

In the case of `Cc1sc2ncn(CC(=O)N3CCCC3)c(=O)c2c1-c1ccc(OCc2ccccc2)cc1` [4-BnO—Ph / Me], the “I10 μM/ICONTROL (mean ± SEM, %) Glu N2C” value [1] is reported as 135 ± 5.4%, the EC50 [1, 4] is reported as 35 µM and the “maximal potentiation Glu N2C” value [1, 5] is reported as 392%. The “I10 μM/ICONTROL (mean ± SEM, %) Glu N2D” value [2] was 131 ± 3.7%, the EC50 [2, 4] was 25 µM and the “maximal potentiation Glu N2D” value [2, 5] was 291%. The “I10 μM/ICONTROL (mean ± SEM, %) Glu N2B” value [3] was 118 ± 5.2%, the EC50 [3, 4] was 11 µM and the “maximal potentiation Glu N2B” value [3, 5] was 147%.
